Nine molecules from US12600696B2 (XENIOPRO GMBH, priority 2017, dated 2026) can be followed below.

Common to all, as to format: cell-based
Experiment [1] concerns HL-60 cells (human acute myeloid leukemia cells). The experiment is described as follows: alamarBlue proliferation assay with HL-60 cells. The conditions noted are these: 120 h, 5 days, relative to DMSO baseline level of 1.0, read-out: AVEw, weighted arithmetic mean of normalized fluorescence intensity values (Activity Range), HL-60 proliferation. The method in brief: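 HL-60 cells (1000/well, RPMI 1640 + 10% FBS) exposed to compound in 0.1% DMSO for 5 days, then alamarBlue fluorescence read (ex 560/em 590 nm). Signals normalized to six DMSO wells per plate (baseline 1.0); outliers removed by Peirce/Chauvenet; weighted mean with combined SD; inhibitor criterion judged at 20 μM reference concentration.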

The subject of experiment [2] is CAL-27 cells (human tongue squamous cell carcinoma cells). In words: alamarBlue proliferation assay with CAL-27 cells. The conditions noted are these: Homo sapiens, 120 h; for activity at 20 µM: 5 days, relative to DMSO baseline level of 1.0, read-out: AVEw, weighted arithmetic mean of normalized fluorescence intensity values (Activity Range), CAL-27 proliferation; for activity at 40 µM: relative to DMSO basis level 1.0, read-out: weighted arithmetic mean (AVEw) of normalized fluorescence intensity, activity range. The gist of the method:
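CAL-27 cells seeded at 2000 per well, exposed to compound in 0.1% DMSO for 5 days, then alamarBlue fluorescence (ex 560/em 590 nm). Values normalized to DMSO wells (1.0) as weighted means with combined standard deviation; growth inhibition judged at 20 μM reference concentration.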
In general terms: Alamar Blue is a resazurin reagent that responds to reducing activity.

In experiment [3] the test system is TT cells (human medullary thyroid carcinoma cells). In words: alamarBlue proliferation assay with TT cells. To be noted: Homo sapiens, 120 h, 40 μM, relative to DMSO basis level 1.0, read-out: weighted arithmetic mean (AVEw) of normalized fluorescence intensity, activity range. The procedure: (§1) The antiproliferative activities of compounds falling under formula I, formula II, formula III, formula IV and formula V were investigated on cells or cell lines originating from a disorder of the myeloid cell compartment, the neuroendocrine system, the cervix, and the mucosal epithelium, as well as from the skin epithelium. To this end, HL-60 cells, TT cells, HeLa cells, CAL-27 cells and human primary epidermal keratinocytes (HPEK) were seeded into 96-well plates suitable for fluorescence assays (CORNING #3598) at following initial cell numbers: 1000 cells per well for HL-60; 9000 cells per well for TT; 2000 cells per well for HeLa, 2000 cells per well for CAL-27, 2000 cells per well for HPEK. The cells were treated with compounds at indicated final concentrations (diluted from the 1000× stock-solutions in DMSO to a final DMSO concentration of 0.1% v/v) or with the empty carrier DMSO at 0.1% v/v as control for 5 days. At day 5 after starting the treatments the cells were subjected to the alamarBlue® Proliferation Assay (Bio-Rad Serotec GmbH, BUF012B) according to the protocol of the manufacturer. The readout was taken with a multi-well plate-reader in the fluorescence mode with applying a filter for excitation at 560 nm (band width 10 nm) and for emission at 590 nm (band width 10 nm). Resveratrol (RES) treatment was included as control for growth inhibition.
(§2) The assays were performed in duplicate or more replicates of independent single experiments each containing a six-fold replicate for every condition. For every individual plate, the measured fluorescence intensity values of the conditions with compound treatment were normalized against the corresponding equally weighted arithmetic mean of the fluorescence intensity values of the six DMSO treated control wells in order to obtain the relative values to a baseline level of 1.0. The statistical calculations were performed in analogy to the luciferase assay as described above. To this end, two independent outlier analyses were performed according to the methods by Peirce and Chauvenet (Ross, Journal of Engineering Technology 2003, 1-12). Outliers confirmed by at least one of the methods were excluded from the calculations but not more than one value out of six per compound within a single experiment. The weighted arithmetic mean AVEw for each compound was calculated from the normalized values over all independent replicates of the single experiments comprising the six replicates each. The corresponding standard deviation for the weighted arithmetic mean was calculated according to the method described by Bronstein et al. (Bronstein, Semendjajew, Musiol, Mühlig, Taschenbuch der Mathematik, 5th edition 2001 (German), publisher: Verlag Harri Deutsch, Frankfurt am Main and Thun) and was combined with the Gauß′ error propagation associated with the performed calculation for the normalization. The resulting standard deviation is herein referred to as “combined standard deviation”.
TT cells were cultivated according to the protocol of the provider in F-12K medium (Fisherscientific, #11580556, or ATCC, #ATCC-30-2004) containing 10% fetal bovine serum (Fisherscientific, #15517589).
(§3) A compound is considered as a growth inhibitor of TT cells, if—at a reference concentration of 40 μM—the weighted arithmetic mean of the normalized fluorescence intensity values after addition of the corresponding combined standard deviation amounts to 0.9 or lower, in particular to 0.8 or lower, 0.7 or lower, 0.6 or lower, 0.4 or lower, and 0.2 or lower, relative to the overall basis level of 1.0. The overall basis level was calculated as the weighted arithmetic mean of all normalized values from the DMSO control measurements in analogy to the calculations performed for the test-compounds. The corresponding combined standard deviation for the DMSO values amounts to less than 1·10^−2.

Experiment [4] concerns HPEKp cells (human epidermal keratinocyte progenitors, pooled). In words: alamarBlue proliferation assay with HPEKp cells. To be noted: 120 h, relative to DMSO basis level 1.0, read-out: weighted arithmetic mean (AVEw) of normalized fluorescence intensity, activity range. The procedure:
as §1, §2
HPEKp cells were cultivated according to the protocol of the provider in CnT-Prime epithelial culture medium (CELLnTEC, #CnT-PR, a fully defined, low calcium formulation, completely free of animal or human-derived components) without addition of further components.
as §3, with “HPEKp” for “TT”, “10” for “40”

The subject of experiment [5] is BHY cells (human oral squamous cell carcinoma cells). The experiment is described as follows: alamarBlue proliferation assay with BHY cells. To be noted: 72 h, 3 days treatment, single assay (preliminary), relative to DMSO basis level 1.0, read-out: equally weighted arithmetic mean (AVE) of six normalized fluorescence intensity values, activity range (RES: AVEw). The procedure: Compounds were tested on BHY cells using the alamarBlue® proliferation assay in analogy to the above described method with seeding the cells at an initial number of 4000 cells per 96-well and a duration of treatment with compounds for 3 days.
BHY cells were cultivated according to the protocol of the provider (but at 5% instead of 10% CO2) in DMEM medium (Fisherscientific, #11584456) containing 10% fetal bovine serum (Fisherscientific, #15517589).
A compound is considered as a growth inhibitor of BHY cells, if—at a reference concentration of 40 μM—the equally weighted arithmetic mean (AVE) of the six normalized fluorescence intensity values after addition of the corresponding standard deviation amounts to 0.9 or lower, in particular to 0.8 or lower, 0.7 or lower, 0.6 or lower, 0.4 or lower, and 0.2 or lower, relative to the overall basis level of 1.0. The overall basis level was calculated as the weighted arithmetic mean (AVEw) of all normalized values from the DMSO control measurements. The corresponding combined standard deviation for the DMSO values amounts to less than 1·10^−2. The corresponding standard deviations for the tested compounds were calculated including the Gauß′ error propagation associated with the performed calculation for the normalization. The weighted arithmetic mean (AVEw) and the combined standard deviation for RES was calculated in analogy to DMSO. Outlier analyses were performed as described above.

With `O=C(NO)c1ccc(Oc2ccc(C3CCCCC3)cc2)c(F)c1` [Compound 540, 4-(4-cyclohexylphenoxy)-3-fluoro-N-hydroxybenzamide], the activity at 20 µM in experiment [1] and in experiment [2] was 0 to 20% throughout. For the same molecule, the activity at 40 µM in experiment [3] fell in the range of 20 to 40%; in experiment [5] it was 0 to 20%. In addition, the activity at 10 µM in experiment [4] was in the range of 20 to 40%.

Turning to `CN(C)C(=O)c1ccc(Oc2ccc(C3CC4CCC3CC4)cc2)cc1` (stereo not shown) [Compound 237, 4-(4-((1s,4s)-bicyclo[2.2.2]octan-2-yl)phenoxy)-N,N-dimethylbenzamide], the values for the activity at 20 µM in experiment [1] and in experiment [2] were 20 to 40% and 40 to 60%, respectively. Moreover, the activity at 40 µM in experiment [2] lay within 20 to 40%; in experiment [3], 40 to 60%.

For `O=C(NO)c1ccc(Oc2ccc(C3(C(F)(F)F)CC3)cc2)c(F)c1` [Compound 768, 3-fluoro-N-hydroxy-4-(4-(1-(trifluoromethyl)cyclopropyl)phenoxy)benzamide], the activity at 20 µM in experiment [1] is 0 to 20%; in experiment [2], 20 to 40%. The activity at 40 µM in experiment [2] was 20 to 40%; in experiment [3] it was 0 to 20%.

As to `NC(=O)c1ccc(Oc2ccc(C34CC5CC(CC(C5)C3)C4)cc2)cc1` [Compound 161, 4-(4-((3r,5r,7r)-adamantan-1-yl)phenoxy)benzamide], the activity at 20 µM in experiment [1] was in the range of 20 to 40%. Besides, the values for the activity at 40 µM in experiment [2] and in experiment [3] were 20 to 40% and 40 to 60%, respectively.

Regarding `CNC(=O)c1ccc(Oc2ccc(C3C[C@@H]4CC[C@H]3C4)cc2)cc1` (stereo partly drawn) [Compound 210, 4-(4-((1S,4R)-bicyclo[2.2.1]heptan-2-yl)phenoxy)-N-methylbenzamide], the values for the activity at 20 µM in experiment [1] and in experiment [2] were 20 to 40% and 70 to 80%, respectively. Further, the activity at 40 µM lay in the range of 0 to 20% in experiment [2] and 60 to 70% in experiment [3].

Take `CCC(C)(C)c1ccc(Oc2ncc(C(=O)NO)cc2F)cc1` [Compound 633]: the activity at 20 µM in experiment [1] and in experiment [2] was 0 to 20% in each case. In addition, the activity at 40 µM in experiment [5] lay within 20 to 40%.

On to `CCOC(=O)c1ccc(Oc2ccc(C3(C(F)(F)F)CC3)cc2Cl)cc1` [Compound 729, Ethyl 4-(2-chloro-4-(1-(trifluoromethyl)cyclopropyl)phenoxy)-benzoate], for which the activity at 20 µM in experiment [1] was in the range of 40 to 60%. The activity at 40 µM in experiment [2] and in experiment [3] was 20 to 40% throughout.

On to `CCCCc1ccc(Oc2ccc(C(=O)NO)cc2)cc1` [Compound 167, 4-(4-butylphenoxy)-N-hydroxybenzamide], for which the activity at 20 µM in experiment [1] was 40 to 60%; in experiment [2], 60 to 70%. The activity at 40 µM in experiment [2] was in the range of 0 to 20%; in experiment [3] it was 20 to 40%.

As to `CCOC(=O)c1ccc(Oc2ccc(C3(C(F)(F)F)CC3)cc2)nc1` [Compound 748, ethyl 6-(4-(1-(trifluoromethyl)cyclopropyl)phenoxy)nicotinate], the activity at 40 µM in experiment [3] lay in the range of 70 to 80%.
